In PMC6494845 (Scientific Reports, 2019):
Several values for one entry are separate records, joined by “and”; a condition that tells them apart may be missing. Equal entries are not always repeated. Where two headings read alike, the source gives them in different places.

Experiments:
Aβ(1–42) aggregates = biological target: T1, Aβ(1–42) aggregates (Homo sapiens, UniProt P05067); experiment: In vitro binding assay using Aβ(1–42) aggregates (intrinsic fluorescence of the ligands); settings: Aβ(1–42) aggregates 1 μM, PBS, 37 °C, 1 h, ligand fluorescence
T1 construct: β-Amyloid(1–42) peptide was purchased from Bachem; purchased Bachem (Torrance, CA, USA)
T1 sequence (P05067 672-713): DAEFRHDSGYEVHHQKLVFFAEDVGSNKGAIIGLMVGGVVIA
Experimental: Binding constants of the ligands for Aβ(1–42) aggregates were determined using the intrinsic fluorescence of the ligands. The binding constant of CRANAD-2 was also measured for comparison. […] Considering the Kd values and feasibility of ^18F-labeling of all the ligands, ligand 2 was selected for further in vitro and in vivo studies.
Aβ(1–42) aggregates were prepared as described in the literature. Briefly, Aβ(1–42) peptide (200 μM) was dissolved in PBS and stirred gently at 37 °C for 2 d. The Aβ(1–42) aggregate formation was confirmed by thioflavin-T fluorescence assay. In vitro binding assays were carried out using the methods described in the literature with some modifications. Various concentrations of ligands (10–400 nM) were dissolved in DMSO, which were then added to PBS solutions of Aβ(1–42) aggregates (1 μM) charged in 96-well black clear-bottom plates. The final concentration of DMSO in a total volume of solution was 1%. Non-specific binding was determined in the absence of Aβ(1–42) aggregates. The reaction mixtures were incubated at 37 °C for 1 h, after which the fluorescence spectra of the ligands were obtained (excitation 510–560 nm and emission 590–660 nm) using a monochromator multimode microplate reader. All experiments were performed in triplicate. Kd values were determined using GraphPad Prism software 5.

Aβ(1–40) aggregates = biological target: Aβ(1–40) aggregates; design: method as in PMID 19807070; settings: cited from earlier work
[1] = design: method as in PMID 19807070; settings: cited from earlier work
[2] = design: method as in PMID 19807070; settings: cited from earlier work; remark: listed apart in the source
[3] = Excitation and emission spectra; type: physicochemical; settings: methanol, 2.5 μM
Experimental: Despite this, ligand 2 has sufficient red-shifted emission for optical imaging.
Ligand 2 was dissolved in methanol (2.5 μM), and its excitation and emission spectra were obtained using a Mithras[2] LB 943 monochromator multimode microplate reader (Berthold Technologies, Bad Wildbad, Germany).

Aβ plaques = Aβ plaques (Homo sapiens, UniProt P05067); experiment: Fluorescent staining of Aβ plaques in mouse brain sections; design: species or system double transgenic mouse (Tg APP/PS-1)
Chain of Aβ plaques (P05067 672-711 limits assumed): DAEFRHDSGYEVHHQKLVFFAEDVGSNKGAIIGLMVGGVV
Experimental: Fluorescent staining of Aβ plaques by 2 was performed using the brain sections from a double transgenic mouse (Tg APP/PS-1). Localization of the Aβ plaques was confirmed by immunofluorescent staining the adjacent brain sections from the transgenic mouse with an anti-Aβ antibody (Fig. 6). The Aβ plaques in the cerebral cortex and hippocampus regions of the transgenic mouse brain sections were stained with 2 (Fig. 6a–c). The staining pattern was consistent with that observed with an Aβ-specific antibody (Fig. 6d–f).
Figure 6 A double transgenic mouse brain section (a–c) and an age-matched wild-type mouse brain section (g–i) stained with 2. The adjacent double transgenic mouse brain section (d–f) and age-matched wild-type mouse brain section (j–l) stained with an Aβ-specific antibody. Magnification of the regions in white boxes (c,f,i and l). Scale bars: 100 μm (c,f,i and l) and 200 μm (the rest).
A double transgenic mouse (APP/PS1, male, 18 months old) was transcardially perfused with PBS, followed by 10% neutral buffered formalin (NBF) under anesthesia. The brain was then immediately removed from skull and post-fixed in 10% NBF for 24 h. The hippocampus and cerebral cortex regions were sliced using brain matrix, embedded in paraffin, and sectioned serially into 4 μm thickness. Brain sections from an age-matched wild-type mouse (male) were obtained as described above. […]

[4] = Metabolism study of 2 (TLC with fluorescence detection of brain homogenates); type: in vivo, Balb/C nude mice
Experimental: In order to further investigate the metabolites of [^18F]2, metabolism study of 2 was also performed; the brain homogenates were analyzed by TLC, followed by fluorescence detection.
After ex vivo optical imaging, the brain tissues were homogenized in 1 mL of acetonitrile and centrifuged. The supernatants were analyzed by TLC using a 4:1 mixture of ethyl acetate–hexane as the developing solvents, and the TLC plates were subjected to optical imaging for 1 sec (excitation, 570 nm; emission, 660 nm).

HIV-1 protease = system: HIV-1 protease; design: method as in PMID 8087563; settings: cited from earlier work
[5] = Partition coefficient measurement (1-octanol/water); type: physicochemical; settings: 1-octanol and water
Experimental: Difluoroboron complex formation lowered the lipophilicity of the curcumin derivative based on TLC analysis.
Partition coefficient of [^18F]2 was measured according to the method described in the literature. [^18F]2 was dissolved in 1-octanol (1 mL) and diluted with water (1 mL). The solution was vortexed vigorously for 5 min and then centrifuged. The 1-octanol and aqueous layers were separated out, and a 500-μL aliquot of each layer was removed and measured using a gamma counter. Samples from the 1-octanol and aqueous layers were repartitioned until consistent values were obtained. The log P is expressed as the logarithm of the ratio of the counts per minute of 1-octanol versus that of water.

[6] = In vitro stability in PBS and FBS (radio-TLC); type: in vitro ADME; settings: for remaining at 2 h: 37 °C, 120 min, radio-TLC, read-out: % remaining radioligand
Experimental: Stability study was performed by incubating [^18F]2 in phosphate-buffered saline (PBS) and in fetal bovine serum (FBS) at 37 °C for 120 min.
Data are presented as % remaining radioligand.
[^18F]2 (21.5 MBq) was dissolved in a minimal volume of 10% ethanol–saline and incubated with PBS or 50% FBS (Gibco, Brooklyn, NY, USA) at 37 °C for 120 min. Aliquots were taken from the incubation solution after 0, 2, 30, 60, and 120 min. The aliquots were analyzed using a radio-TLC scanner.

[7] = Metabolism study of [^18F]2 (radio-TLC of brain homogenates and blood); type: in vivo, ICR mice; settings: brain homogenate, 2 min after injection
Experimental: However, the radioligand disappeared almost entirely, and the new polar radioactive peaks appeared at the origin of radio-TLC at 30 and 60 min after injection (82% and 100%, respectively; Fig. 9c,d). The radioligand also disappeared in the blood samples, but at a rate slower than that of the brain samples (Fig. 9f–h). The polar radioactive products were further analyzed by radio-TLC using a polar developing solvent system, and the polar products moved toward the solvent front. […] Moreover, the polar products were not adsorbed onto calcium phosphate (7% in calcium phosphate pellet vs. 93% in supernatant), which is a component of the bone matrix.
Figure 9 Radio-TLC analysis of the brain homogenates and blood samples obtained at 2, 30, and 60 min after injection of [^18F]2 into ICR mice. […] The 60-min samples (d and h) were further analyzed by radio-TLC using a 1:1:0.01 mixture of dichloromethane–methanol–triethylamine as the developing solvents (e and i). TLC analysis followed by fluorescence detection of the brain homogenates obtained at 2, 30, and 60 min after injection of 2 into Balb/C nude mice (j). […]
[^18F]2 (19.6 MBq) dissolved in 10% ethanol–saline was injected into ICR mice via a tail vein. […] The supernatants were analyzed by radio-TLC using a 4:1 mixture of ethyl acetate–hexane or a 1:1:0.01 mixture of dichloromethane–methanol–triethylamine as the developing solvents.

Biodistribution study = type: in vivo; settings: ICR mice, i.v.
Experimental: However, there was poor brain uptake at 2 min after injection with increased uptake over time, as follows: 0.49 ± 0.02% ID/g at 2 min, 1.02 ± 0.08% ID/g at 30 min, and 1.19 ± 0.06% ID/g at 60 min (Table 1).
ICR mice (male, 7-week-old, four mice per time point) were injected with [^18F]2 (1.85 MBq) dissolved in 10% ethanol–saline via a tail vein. Mice were sacrificed at the indicated time points (2, 30, and 60 min). Samples of blood and major tissues (heart, lung, liver, spleen, kidney, intestines, muscle, femur, and brain) were removed, weighed, and counted in a Wizard[2] automatic gamma counter (PerkinElmer, Waltham, MA, USA). Data are expressed as the percent injected dose per gram of tissue (% ID/g).

Compound: CN(C)c1ccc(/C=C/C2=CC(/C=C/c3ccc(N(C)C)cc3)=[O+][B-](F)(F)O2)cc1 [CRANAD-2]
- Kd (Aβ(1–42) aggregates): 19.4 nM
- Kd (Aβ(1–40) aggregates): 38.7 nM and 38 nM
- stability in serum [1]: stability in the serum
- blue shift when binding to the Aβ aggregates [2]: 90 nm
- emission ([2]; in methanol): 760 nm

Compound: COc1cc(/C=C/C2=[O+][B-](F)(F)OC(/C=C/c3ccc(OCCOCCF)c(OC)c3)=C2)ccc1O [Ligand 3, BF2 complex of 4′-(2-(2-fluoroethoxy)ethoxy)curcuminoid]
- Kd (Aβ(1–42) aggregates): 138 nM

Compound: CN(C)c1ccc(/C=C/C2=[O+][B-](F)(F)OC(/C=C/c3ccc(OCCOCCF)cc3)=C2)cc1 [Ligand 2, BF2 complex of 4′-dimethylamino-4″-(2-(2-fluoroethoxy)ethoxy)curcuminoid]
- Kd (Aβ(1–42) aggregates): 19.7 nM
- emission [3]: 650 nm
- excitation [3]: 550 nm
- staining of Aβ plaques (Aβ plaques; Tg APP/PS-1 mouse brain sections, cerebral cortex and hippocampus, 100 μM, 10 min): stained
- staining of brain sections (Aβ plaques; age-matched wild-type mouse brain sections): no notable positive staining
- fluorescent spot of 2 on TLC of brain homogenate ([4]; 2-min sample): a fluorescent spot was detected
- fluorescent spot of 2 on TLC of brain homogenate ([4]; 30- and 60-min samples): did not appear

Compound: COc1cc(/C=C/C2=CC(/C=C/c3ccc(O)c(OC)c3)=[O+][B-](F)(F)O2)ccc1O [difluoroboron-curcumin]
- IC50 (HIV-1 protease): 24 µM

Compound: CN(C)c1ccc(/C=C/C2=[O+][B-](F)(F)OC(/C=C/c3ccc(OCCOCC[18F])cc3)=C2)cc1 [[^18F]2]
- logP [5]: 2.58 ± 0.04
- remaining at 120 min ([6]; bovine, PBS and fetal bovine serum (50%), both PBS and FBS, read-out: % remaining radioligand (stable in both PBS and FBS)): > 83%
- remaining at 2 h ([6]; bovine, fetal bovine serum (50%), FBS (50% FBS in method)): 83%
- remaining at 2 h ([6]; phosphate-buffered saline, PBS): 89%
- [^18F]2 remaining in the brain [7]: 84%
- Biodistribution, Blood (Biodistribution study; 2 min): 1.49 ± 0.12 % ID/g
- Biodistribution, Brain (Biodistribution study; 2 min): 0.49 ± 0.02 % ID/g
- Biodistribution, Femur (Biodistribution study; 2 min): 0.58 ± 0.10 % ID/g
- Biodistribution, Heart (Biodistribution study; 2 min): 2.20 ± 0.57 % ID/g
- Biodistribution, Kidney (Biodistribution study; 2 min): 3.25 ± 0.48 % ID/g
- Biodistribution, Large intestine (Biodistribution study; 2 min): 0.24 ± 0.05 % ID/g
- Biodistribution, Liver (Biodistribution study; 2 min): 26.92 ± 1.58 % ID/g
- Biodistribution, Lung (Biodistribution study; 2 min): 3.56 ± 0.25 % ID/g
- Biodistribution, Muscle (Biodistribution study; 2 min): 0.49 ± 0.19 % ID/g
- Biodistribution, Small intestine (Biodistribution study; 2 min): 0.92 ± 0.13 % ID/g
- Biodistribution, Spleen (Biodistribution study; 2 min): 12.59 ± 2.42 % ID/g
- Biodistribution, Blood (Biodistribution study; 30 min): 2.50 ± 0.22 % ID/g
- Biodistribution, Brain (Biodistribution study; 30 min): 1.02 ± 0.08 % ID/g
- Biodistribution, Femur (Biodistribution study; 30 min): 0.91 ± 0.13 % ID/g
- Biodistribution, Heart (Biodistribution study; 30 min): 1.93 ± 0.19 % ID/g
- Biodistribution, Kidney (Biodistribution study; 30 min): 4.11 ± 0.46 % ID/g
- Biodistribution, Large intestine (Biodistribution study; 30 min): 0.95 ± 0.11 % ID/g
- Biodistribution, Liver (Biodistribution study; 30 min): 14.21 ± 1.39 % ID/g
- Biodistribution, Lung (Biodistribution study; 30 min): 2.62 ± 0.29 % ID/g
- Biodistribution, Muscle (Biodistribution study; 30 min): 0.97 ± 0.11 % ID/g
- Biodistribution, Small intestine (Biodistribution study; 30 min): 6.47 ± 1.63 % ID/g
- Biodistribution, Spleen (Biodistribution study; 30 min): 11.66 ± 2.70 % ID/g
- Biodistribution, Blood (Biodistribution study; 60 min): 3.46 ± 0.81 % ID/g
- Biodistribution, Brain (Biodistribution study; 60 min): 1.19 ± 0.06 % ID/g
- Biodistribution, Femur (Biodistribution study; 60 min): 1.43 ± 0.14 % ID/g
- Biodistribution, Heart (Biodistribution study; 60 min): 1.87 ± 0.20 % ID/g
- Biodistribution, Kidney (Biodistribution study; 60 min): 2.58 ± 0.15 % ID/g
- Biodistribution, Large intestine (Biodistribution study; 60 min): 2.16 ± 0.42 % ID/g
- Biodistribution, Liver (Biodistribution study; 60 min): 9.36 ± 0.18 % ID/g
- Biodistribution, Lung (Biodistribution study; 60 min): 2.34 ± 0.50 % ID/g
- Biodistribution, Muscle (Biodistribution study; 60 min): 0.87 ± 0.05 % ID/g
- Biodistribution, Small intestine (Biodistribution study; 60 min): 14.92 ± 4.06 % ID/g
- Biodistribution, Spleen (Biodistribution study; 60 min): 10.72 ± 2.45 % ID/g

Compound: CNc1ccc(/C=C/C2=[O+][B-](F)(F)OC(/C=C/c3ccc(OCCOCCF)cc3)=C2)cc1 [Ligand 1, BF2 complex of 4′-monomethylamino-4″-(2-(2-fluoroethoxy)ethoxy)curcuminoid]
- Kd (Aβ(1–42) aggregates): 33.8 nM

Compound: CN(C)c1ccc(/C=C/C2=[O+][B-](F)(F)OC(/C=C/c3ccc(OCC(O)CF)cc3)=C2)cc1 (stereo not drawn) [Ligand 4, BF2 complex of 4′-dimethylamino-4″-(3-fluoro-2-hydroxypropoxy)curcuminoid]
- Kd (Aβ(1–42) aggregates): 15.3 nM
